Experimental data published in patent US9445594B2, “Molecules having certain pesticidal utilities, intermediates, compositions, and processes, related thereto” (priority 2014, dated 2016).

Assays:
Type in all cases: in vivo
[1] = test system: Yellow Fever Mosquito (Aedes aegypti, AEDSAE) ("YFM"); experiment: Bioassays on YFM, 96-well plate larval assay; details: about 1 day-old larvae, from 4000 ppm DMSO master plate diluted, room temperature, scored after 3 days
Procedure, shortened: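 Compounds from 4000 ppm DMSO master plates, diluted in 90:10 water:acetone, dispensed into 96-well plates, six replicates. About 1-day-old larvae added in liver-powder water. Wells covered, held 3 days at room temperature, then scored for mortality.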

[2] = test system: Beet Armyworm (Spodoptera exigua, LAPHEG) ("BAW"); experiment: Bioassays on BAW, 128-well diet tray assay; details: 168 h, second instar larvae, 50 μg/cm^2 on artificial diet, 25° C., five to seven days, average of eight wells, read-out: BAW % Control (or Mortality) rating
Procedure, shortened: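 One to five second-instar larvae were placed per well on artificial diet surface-treated with 50 μg/cm^2 compound from 90:10 acetone-water, dried before infestation. Trays were held at 25 °C, 14:10 light-dark, for five to seven days. Percent mortality was averaged over eight wells.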

[3] = test system: Green Peach Aphid (Myzus persicae, MYZUPE) ("GPA"); experiment: Bioassays on GPA, foliar spray of infested cabbage seedlings; details: 72 h, 200 ppm spray on cabbage seedlings, graded after three days, Abbott corrected % control, read-out: GPA % Control (or Mortality) rating
Method: Certain molecules disclosed in this document were tested against GPA using procedures described in the following example. In the reporting of the results, the “GPA Rating Table” was used (See Table Section).
Cabbage seedlings grown in 3-inch pots, with 2-3 small (3-5 cm) true leaves, were used as test substrate. The seedlings were infested with 20-50 GPA (wingless adult and nymph stages) one day prior to chemical application. Four pots with individual seedlings were used for each treatment. Test compounds (2 mg) were dissolved in 2 mL of acetone/methanol (1:1) solvent, forming stock solutions of 1000 ppm test compound. The stock solutions were diluted 5× with 0.025% Tween 20 in water to obtain the solution at 200 ppm test compound. A hand-held aspirator-type sprayer was used for spraying a solution to both sides of […] leaves until runoff. Reference plants (solvent check) were sprayed with the diluent only containing 20% by volume of acetone/methanol (1:1) solvent. Treated plants were held in a holding room for three days at approximately 25° C. and ambient relative humidity (RH) prior to grading. Evaluation was conducted by counting the number of live aphids per plant under a microscope. Percent Control was measured by using Abbott's correction formula (W. S. Abbott, “A Method of Computing the Effectiveness of an Insecticide” J. Econ. Entomol. 18 (1925), pp. 265-267) as follows. Corrected % Control=100*(X−Y)/X • where • X=No. of live aphids on solvent check plants and • Y=No. of live aphids on treated plants

[4] = test system: Cabbage Looper (Trichoplusia ni, TRIPNI) ("CL"); experiment: Bioassays on CL, 128-well diet tray assay; details: 168 h, second instar larvae, 50 μg/cm^2 on artificial diet, 25° C., five to seven days, average of eight wells, read-out: CL % Control (or Mortality) rating
Procedure, shortened: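 Second-instar larvae (one to five per well) on artificial diet surface-treated with 50 μg/cm^2 compound in 90:10 acetone-water, eight wells per treatment. Held at 25° C., 14:10 light-dark for five to seven days. Percent mortality scored per well and averaged over the eight wells.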

Row | Compound | YFM % Control (or Mortality) rating [1] | mortality at 50 µg/cm2 [2] | mortality at 200 ppm [3] | mortality at 50 µg/cm2 [4]
1 | Cc1ccc(C(C)C)c(NC(=O)NCCCc2ccc(-c3ncn(-c4ccc(OC(F)(F)F)cc4)n3)cc2)c1 [P6, 1-(2-Isopropyl-5-methylphenyl)-3-(3-(4-(1-(4-(trifluoromethoxy)phenyl)-1H-1,2,4-triazol-3-yl)phenyl)propyl)urea] | A (80-100) | 50 to 100% | 0% | 50 to 100%
2 | CCCc1ccccc1NC(=O)Nc1ccc(-c2ncn(-c3ccc(OC(F)(F)F)cc3)n2)cc1 [F37, 1-(2-propylphenyl)-3-(4-(1-(4-(trifluoromethoxy)phenyl)-1H-1,2,4-triazol-3-yl)phenyl)urea] | B (More than 0 - Less than 80) | 0 to 50% | 0 to 80% | 50 to 100%
3 | CCc1cccc(C)c1NC(=O)NCCCc1ccc(-c2ncn(-c3ccc(OC(F)(F)F)cc3)n2)cc1 [P5, 1-(2-Ethyl-6-methylphenyl)-3-(3-(4-(1-(4-(trifluoromethoxy)phenyl)-1H-1,2,4-triazol-3-yl)phenyl)propyl)urea] | D (No activity noticed in this bioassay) | 0% | 0% | 0%
4 | Fc1ccc(NC(=S)Nc2ccc(-c3ncn(-c4ccc(OC(F)(F)F)cc4)n3)cc2)cc1 [F72, 1-(4-Fluorophenyl)-3-(4-(1-(4-(trifluoromethoxy)phenyl)-1H-1,2,4-triazol-3-yl)phenyl)thiourea] | B (More than 0 - Less than 80) | 50 to 100% | 0% | –
5 | O=C(Nc1ccc(-c2ncn(-c3ccc(OC(F)(F)F)cc3)n2)cc1)Nc1ncccc1-c1cccnc1 [F66, 1-([3,3′-Bipyridin]-2-yl)-3-(4-(1-(4-(trifluoromethoxy)phenyl)-1H-1,2,4-triazol-3-yl)phenyl)urea] | D (No activity noticed in this bioassay) | 50 to 100% | 0 to 80% | 50 to 100%
6 | CC(C)CC(C)c1ccccc1NC(=O)Nc1ccc(-c2ncn(-c3ccc(OC(F)(F)F)cc3)n2)cc1 (stereo not shown) [F18, 1-(2-(4-methylpentan-2-yl)phenyl)-3-(4-(1-(4-(trifluoromethoxy)phenyl)-1H-1,2,4-triazol-3-yl)phenyl)urea] | D (No activity noticed in this bioassay) | 50 to 100% | 0% | 50 to 100%
7 | CCc1ccccc1-c1cccnc1NC(=O)Nc1ccc(-c2ncn(-c3ccc(OC(F)(F)F)cc3)n2)cc1 [F16, 1-(3-(2-Ethylphenyl)pyridin-2-yl)-3-(4-(1-(4-(trifluoromethoxy)phenyl)-1H-1,2,4-triazol-3-yl)phenyl)urea] | D (No activity noticed in this bioassay) | 50 to 100% | 0 to 80% | 50 to 100%
8 | Cc1ccccc1-c1ccccc1NC(=O)NCCCc1ccc(-c2ncn(-c3ccc(OC(F)(F)F)cc3)n2)cc1 [FA1, 1-(2′-Methyl-[1,1′-biphenyl]-2-yl)-3-(3-(4-(1-(4-(trifluoromethoxy)phenyl)-1H-1,2,4-triazol-3-yl)phenyl)propyl)urea] | A (80-100) | 0% | 0% | 50 to 100%
9 | Cc1ccccc1-c1cccnc1NC(=S)Nc1ccc(-c2ncn(-c3ccc(OC(F)(F)F)cc3)n2)cc1 [F11, 1-(3-(o-Tolyl)pyridin-2-yl)-3-(4-(1-(4-(trifluoromethoxy)phenyl)-1H-1,2,4-triazol-3-yl)phenyl)thiourea] | D (No activity noticed in this bioassay) | 50 to 100% | 0 to 80% | –
